Results: patent US7811760B2, “Vector and method for detecting the change in transcription amount” (priority 2006, dated 2010)

System: ligand-dependent transcription factors (AhR, ER, and AR)
Assay: Reporter gene (luciferase) assay in Neuro2a cells carrying PGV-THp03 (SEQ ID No: 2)
Type: cell-based, mouse
Details: for luciferase activity increase: 30 hours, PGV-THp03, AhR-introduced Neuro2a
Description: A vector (PGV-THp03) containing the upstream region (SEQ ID No: 2) ranging from about −300 to 0 position of the TH gene-coding region, which was prepared in Example 4, was used. Neuro2a was used as the cell.
Two kinds of vectors, pcDNA4-rAhR (Example 1) and pcDNA4/V5-His/lacZ (Invitrogen), were introduced into Neuro2a, together with PGV-THp03. pcDNA4-rAhR was introduced for constitutive expression of the SD-line rat AhR gene (SEQ ID No: 10) in the cell, and pcDNA4/V5-His/lacZ was introduced for normalization of the vector transfection efficiency.
The vectors were introduced into the cell by using LIPOFECTAMINE 2000 (Invitrogen). The cell was cultured on a 24-well plate, and the operation was performed according to the manual of Invitrogen. A total of […] of vectors (0.4 μg of PGV-THp03, 0.2 μg of pcDNA4-rAhR, and 0.2 μg of pcDNA4/V5-His/lacZ) suspended in 50 μl of OPTI-MEM medium and 2 μl of LIPOFECTAMINE 2000 suspended in 50 μl of OPTI-MEM medium were mixed, and incubated at room temperature for 20 minutes to form nucleic acid/LIPOFECTAMINE 2000 complex. The obtained suspension containing the complex was added to Neuro2a cell culture, which has been previously cultured overnight in 500 μl of DF1:1 medium (containing 10% fetal calf serum) (0.8×10^5 cells were seeded on previous day), to allow incorporation of the vectors into the cell. The cell was cultured additionally for 24 hours after transfection, for the purpose of improvement in vector incorporation efficiency and expression of the protein derived from the introduced vectors.
As the test substances, vinclozolin (10 μM), dimethyl phthalate (10 μM), benzopyrene (1 μM), and dioxin (TCDD) (10 nM) were used. After the transfection and the additional incubation for 24 hours, the medium was replaced with a fresh medium containing any one of the test substances, and the cell was cultured additionally for 30 hours. After 30 hours, the medium was removed from the 24-well plate, and the cell was washed with phosphate buffer twice. 100 μl of a protein extraction solution (manufactured by TOYO B-NET) was added to each well, and the cell suspension was stirred gently at room temperature for 15 minutes and then frozen at −80° C. The frozen solution was thawed at room temperature, and the resulting solution was recovered in a tube and diluted ten times with a protein extraction reagent containing 1 mg/ml bovine serum albumin luciferase and β-galactosidase activities in the diluted solution were measured, and the expression amount of the reporter gene was calculated as a relative luminescence intensity per 1 ng of β-galactosidase per second (RLU/sec/ng β-galactosidase).

SMILES | luciferase activity increase (10 μM) | change in luciferase activity (10 μM, PGV-THp03, cell with no AhR introduced) | luciferase activity increase (1 μM)
COC(=O)c1ccccc1C(=O)OC [Dimethyl phthalate, dimethyl phthalate] | approximately 1.2 times | – | –
C=CC1(C)OC(=O)N(c2cc(Cl)cc(Cl)c2)C1=O (stereo not shown) [vinclozolin] | approximately 1.3 times | no change in luciferase activity | –
c1ccc2c(c1)c1cccc3ccc4cccc2c4c31 [benzopyrene] | – | – | approximately 1.3 times
